In patent publication US20060263502A1, “Absorbent material for use in humid conditions” (priority 2003, published 2006):

Experiment: Sensitivity to moisture of tetrazine compounds in polystyrene
Format: physicochemical
Conditions: 0.2M in polystyrene film about 130 μm; relative humidity 93% at 25° C.; at least 42 days; absorbance 500-550 nm
Description: The depletion of the tetrazine compound, as measured by % absorbance change, was used to indicate the sensitivity to moisture of the tetrazine compounds.
Compositions were prepared by blending the tetrazine compounds at a concentration of 0.2M into polystyrene. Each composition was then compression moulded to form a film having a thickness of about 130 μm. Each film sample was then mounted in a cell holder and the maximum absorbance between 500-550 nm measured. The cell holders containing the film samples were then placed on a mesh platform in a 550 mL squat glass jar fitted with a screw cap and polypropylene wad seal. To achieve a relative humidity of 93% at 25° C., a saturated solution of potassium nitrate covered the bottom of the jars (approx. 10 mm below the mesh platform). The jars were stored in a controlled-temperature room at 25° C.
At intervals of several days for at least 42 days, samples were in turn removed from their jars, and the maximum absorbance recorded between 500-550 nm, before immediately returning them to the controlled-temperature room in their sealed jars.

- sensitivity to moisture (depletion of the tetrazine compound, as measured by % absorbance change): highly unstable to moisture
Compound: COC(=O)c1nnc(C(=O)OC)nn1 [DMTD, dimethyl-1,2,4,5-tetrazine-3,6-dicarboxylate, reference compound]
